Reference: patent US20230058623A1, “NOVEL HETEROARYL-TRIAZOLE COMPOUNDS AS PESTICIDES” (Bayer Aktiengesellschaft, priority 2019, published 2023)

Experiments:
Type in all cases: in vivo
[1] = system: Rhipicephalus (Boophilus) microplus larvae (strain Parkhurst, resistant against synthetic pyrethroids); assay: Rhipicephalus (Boophilus) microplus in-vitro contact test, larval cattle tick; details: after 48 hours, read-out: activity (efficacy: larvae dead or moribund); for pest or weed control at 1 µg/cm2, 100 g/ha: application rate 1 μg/cm^2 (=100 g/ha); for pest or weed control at 5 µg/cm2, 500 g/ha: application rate 5 μg/cm^2 (=500 g/ha)
Procedure, shortened: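 Acetone solutions were coated onto glass tube walls, giving 5 μg/cm^2 at 900 ppm. Once dry, 20–50 pyrethroid-resistant Parkhurst larvae were added per tube and held 48 h at 27 °C and 85% RH. Efficacy was scored by negative geotaxis as the percentage of dead or moribund larvae.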

[2] = system: adult engorged female ticks (Rhipicephalus microplus); assay: Rhipicephalus (Boophilus) microplus injection test; details: 168 h, application rate 4 μg/tick, egg deposition after 7 days, read-out: activity (efficacy: infertile eggs)
Method: Rhipicephalus (Boophilus) microplus—Injection Test
Solvent: dimethyl sulfoxide
To produce a suitable preparation of active compound, 10 mg of active compound are dissolved in 0.5 mL solvent, and the concentrate is diluted with solvent to the desired concentration.
Five adult engorged female ticks (Rhipicephalus microplus) are injected with 1 μL compound solution into the abdomen. The ticks are transferred into replica plates and incubated in a climate chamber.
After 7 days egg deposition of fertile eggs is monitored. Eggs where fertility is not visible are stored in a climate chamber till hatching after about 42 days. An efficacy of 100% means all eggs are infertile; 0% means all eggs are fertile.

[3] = system: adult brown dog ticks (Rhipicephalus sanguineus); assay: Rhipicephalus sanguineus in-vitro contact test, adult brown dog ticks; details: application rate 5 μg/cm^2 (=500 g/ha), after 48 hours, read-out: activity (efficacy: ticks dead or moribund)
Method: Rhipicephalus sanguineus—In-Vitro Contact Tests with Adult Brown Dog Ticks
(§1) 9 mg compound is solved in 1 mL acetone and diluted with acetone to the desired concentration. 250 μL of the test solution is filled in 25 mL glass test tubes and homogeneously distributed on the inner walls by rotation and tilting on a shaking device (2 h at 30 rpm). With a compound concentration of 900 ppm, an inner surface of 44.7 cm^2 and a homogeneous distribution, a dose of 5 μg/cm^2 is achieved.
(§2) After the solvent has evaporated, each test tube is filled with 5-10 adult brown dog ticks (Rhipicephalus sanguineus), closed with a perforated lid and incubated in a lying position at room temperature and relative humidity. After 48 hours efficacy is determined. The ticks are patted on the ground of the tubes and are incubated on a heating plate at 45-50° C. for at most 5 minutes. Immotile or uncoordinated moving ticks, which are not able to escape the heat by climbing upwards, are marked as dead or moribund.
An efficacy of 100% means all ticks are dead or moribund; 0% means no ticks are dead or moribund.

[4] = system: adult mosquitoes Aedes aegypti strain MONHEIM; assay: Aedes aegypti test (AEDSAE surface treatment & contact assay); details: surface concentration 20 mg/m^2, exposure 30 minutes, 24 hours after contact, read-out: efficacy (mortality)
Method: Aedes aegypti Test (AEDSAE Surface Treatment & Contact Assay)
(§3) Solvent: Aceton+2000 ppm rapeseed oil methyl ester (RME)
(§4) In order to produce a sufficient, active ingredient containing solution it is necessary to solve the test compound in the solvent-mix (acetone at 2 mg/ml/RME 2000 ppm). This solution is pipetted onto a glazed tile and after evaporation of the acetone, adult mosquitoes of the species Aedes aegypti strain MONHEIM are placed onto the dried surface. The exposure time is 30 minutes.
(§5) Mortality in percent (%) is determined 24 hours after contact of the insects to the treated surface. 100% mortality means that all tested insects are dead, whereas 0% means that no insect died.

[5] = system: green peach aphid (Myzus persicae); assay: Myzus persicae oral test; details: 120 h, read-out: activity (mortality)
Method: Solvent: 100 parts by weight acetone
To produce a suitable preparation of active compound, 1 part by weight of active compound is mixed with the stated amount of solvent, and the concentrate is diluted with water to the desired concentration.
50 μL compound solution is filled in microtiter plates and 150 μL IPL41 insect medium (33%+15% sugar) is added to obtain a total volume of 200 μL per well. Afterwards the plates are sealed with parafilm through which a mixed population of the green peach aphid (Myzus persicae) can suck on the compound preparation.
(§6) After 5 days mortality in % is determined. 100% means all aphids have been killed and 0% means none of the aphids have been killed.

[6] = system: fall armyworm larvae (Spodoptera frugiperda); assay: Spodoptera frugiperda spray test; details: 168 h, application rate 100 g/ha, after 7 days, maize leaf sections
Procedure, shortened: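 Maize leaf sections sprayed with compound diluted in water with 1000 ppm emulsifier, then infested with larvae once dry. Mortality (%) scored after 7 days; 100% = all caterpillars killed.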

[7] = system: adult cat fleas (Ctenocephalides felis); assay: Ctenocephalides felis in-vitro contact test, adult cat flea; details: application rate 5 μg/cm^2 (=500 g/ha), after 48 hours, read-out: activity (efficacy: fleas dead or moribund)
Method: Ctenocephalides felis—In-Vitro Contact Tests Adult Cat Flea
as §1
as §2, with “cat fleas (Ctenocephalides felis),” for “brown dog ticks (Rhipicephalus sanguineus),”, “fleas” for “ticks”, “fleas,” for “ticks,”
An efficacy of 100% means all fleas are dead or moribund; 0% means no fleas are dead or moribund.

[8] = system: green peach aphid (Myzus persicae); assay: Myzus persicae spray test; details: foliar, 120 h, after 5 days, Chinese cabbage leaf disks; for mortality at 100 g/ha: application rate 100 g/ha, read-out: activity (mortality); for mortality at 500 g/ha: application rate 500 g/ha
Method: Myzus persicae—Spray Test
(§7) To produce a suitable preparation of active compound, 1 part by weight of active compound is mixed with the stated amount of solvents and is diluted with water, containing an emulsifier concentration of 1000 ppm, to the desired concentration. Further test concentrations are prepared by dilution with emulsifier containing water.
Chinese cabbage (Brassica pekinensis) leaf disks infected with all instars of the green peach aphid (Myzus persicae), are sprayed with a preparation of the active ingredient of the desired concentration.
as §6

[9] = system: larvae of the southern green stink bug (Nezara viridula); assay: Nezara viridula spray test; details: 96 h, after 4 days, barley plants; for mortality at 100 g/ha: application rate 100 g/ha; for mortality at 500 g/ha: application rate 500 g/ha, read-out: activity (mortality)
Method: Nezara viridula—Spray Test
as §7, with “solvent,” for “solvents”, “and the concentrate” for “and”
Barley plants (Hordeum vulgare) are sprayed with a test solution containing the desired concentration of the active ingredient and are infested with larvae of the southern green stink bug (Nezara viridula).
After 4 days mortality in % is determined. 100% means all the stink bugs have been killed; 0% means none of the stink bugs have been killed.

[10] = system: larvae of the banded cucumber beetle (Diabrotica balteata); assay: Diabrotica balteata spray test; details: 168 h, application rate 100 g/ha (=32 μg/well), after 7 days, wheat seeds, read-out: activity (efficacy: seedlings grown)
Procedure, shortened: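 Wheat seeds germinated 1 day on agar were sprayed with compound diluted in water with 1000 ppm emulsifier, then infested with 10-20 Diabrotica balteata larvae. Efficacy in % scored after 7 days: 100% = seedlings grown as untreated, uninfected control; 0% = no seedlings grown.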

[11] = system: adult flies Musca domestica strain WHO-N; assay: Musca domestica test (MUSCDO surface treatment & contact assay); details: surface concentration 20 mg/m^2, exposure 30 minutes, 24 hours after contact, read-out: efficacy (mortality)
Method: Musca domestica Test (MUSCDO Surface Treatment & Contact Assay)
as §3
as §4, with “flies” for “mosquitoes”, “Musca domestica” for “Aedes aegypti”, “WHO-N” for “MONHEIM”
as §5

Structure (SMILES)	pest or weed control at 1 µg/cm2, 100 g/ha [1] [%]	pest or weed control at 5 µg/cm2, 500 g/ha [1] [%]	pest or weed control at 0.004 mg [2] [%]	pest or weed control at 5 µg/cm2, 500 g/ha [3] [%]	mortality at 20 mg/m2 [4] [%]	mortality at 4 ppm [5] [%]	mortality at 100 g/ha [6] [%]	pest or weed control at 5 µg/cm2 [7] [%]	mortality at 100 g/ha [8] [%]	mortality at 100 g/ha [9] [%]	pest or weed control at 32 µg/disc, 100 g/ha [10] [%]	mortality at 500 g/ha [8] [%]	mortality at 500 g/ha [9] [%]	mortality at 20 mg/m2 [11] [%]
C[C@H](NC(=O)c1cc(C(F)(F)F)cc(C(F)(F)F)c1)c1ncnn1-c1ccc(C(=O)N2CC3(COC3)C2)cn1 [Example I-12]	100	100	100	100	80 to 100	100	100	90	–	–	–	–	–	–
C[C@H](NC(=O)c1cc(C(F)(F)F)cc(C(F)(F)F)c1)c1ncnn1-c1ccc(C(=O)N2CCOC(C)(C)C2)cn1 [Example I-14, N-[(1S)-1-(1-{5-[(2,2-dimethylmorpholin-4-yl)carbonyl]pyridin-2-yl}-1H-1,2,4-triazol-5-yl)ethyl]-3,5-bis(trifluoromethyl)benzamide]	100	100	100	100	–	100	83	100	90	100	100	–	–	–
CON(C)C(=O)c1ccc(-n2ncnc2[C@H](C)NC(=O)c2cc(C(F)(F)F)cc(C(F)(F)F)c2)nc1 [Example I-48]	100	100	–	–	80 to 100	100	100	–	–	–	100	–	–	–
CON(C)C(=O)c1ccc(-n2nc(C)nc2[C@H](C)NC(=O)c2cc(C(F)(F)F)cc(C(F)(F)F)c2)nc1 [Example I-49]	100	100	–	–	80 to 100	100	100	–	90	–	100	–	–	–
C[C@H](NC(=O)c1cc(C(F)(F)F)cc(C(F)(F)F)c1)c1ncnn1-c1ccc(C(=O)NC2CCOC2)cn1 (stereo partly drawn) [Example I-61]	90	90	–	–	80 to 100	100	100	–	–	–	–	90	100	–
C[C@H](NC(=O)c1cc(C(F)(F)F)cc(C(F)(F)F)c1)c1ncnn1-c1ccc(C(=O)NC2CS(=O)(=O)C2)cn1 [Example I-63]	90	90	–	–	80 to 100	100	–	100	90	–	100	90	–	–
Cc1nc([C@H](C)NC(=O)c2cc(C(F)(F)F)cc(C(F)(F)F)c2)n(-c2ccc(C(=O)N3CCOC[C@@H]3C)cn2)n1 [Example I-68]	100	100	–	–	80 to 100	–	100	100	–	–	100	–	–	–
Cc1nc([C@H](C)NC(=O)c2cc(C(F)(F)F)cc(C(F)(F)F)c2)n(-c2ccc(C(=O)N3CCOC[C@H]3C)cn2)n1 [Example I-72]	100	100	–	100	–	–	100	100	–	–	100	–	–	80 to 100
C[C@H](NC(=O)c1cc(C(F)(F)F)cc(C(F)(F)F)c1)c1ncnn1-c1ccc(C(=O)N2CCOCC2c2ncno2)cn1 (stereo partly drawn) [Example I-98]	100	100	–	100	–	100	–	90	–	90	100	–	–	–
CCc1nc([C@H](C)NC(=O)c2cc(Br)cc(OC(F)(F)F)c2)n(-c2ccc(C(=O)N3C[C@@H](C)O[C@@H](C)C3)cn2)n1 [Example I-135]	100	100	–	100	–	–	100	100	–	–	100	–	100	–
C[C@@H]1CN(C(=O)c2cnc(-n3ncnc3[C@H](C)NC(=O)c3cc(OC(F)(F)F)cc(C4CC4)c3)cn2)C[C@H](C)O1 [Example I-141]	–	–	–	–	–	–	100	–	90	90	–	–	100	–
C[C@@H]1CN(C(=O)c2cnc(-n3ncnc3[C@H](C)NC(=O)c3cc(C(F)(F)F)cc(C(F)(F)F)c3)cn2)C[C@H](C)O1 [Example I-143]	–	–	–	–	–	–	100	–	90	–	100	–	100	–
